Results published in US20250136572A1, “PARA ACYL SUBSTITUTED DIAZACYCLOHEXENE DERIVATIVES” (Renovel Innovations, Inc., priority 2021, published 2025).

Columns and labels:
[1] = Triglycerides in high fructose fed hamsters; type: in vivo; conditions: compared with the high fructose fed group
[2] = Fasting blood glucose in mice on high fat diet; type: in vivo; conditions: compared with the control high fat diet group
[3] = Oral glucose tolerance test in C57BL/6 mice on high fat diet; type: in vivo; set-up: concentration or dose not given beside the values; conditions: for reduction in blood glucose at the peak oral glucose tolerance test of 30 minutes: compared with the control high fat diet group
[4] = system: TNF-α; assay: TNF-α in LPS-treated mice; type: in vivo; conditions: from the LPS group
[5] = Body weight in C57BL/6 mice on high fat diet; type: in vivo, male C57BL/6 mice; conditions: for decrease in body weight: compared to the high fat diet control group
[6] = Blood pressure in rats; type: in vivo; conditions: compared to the vehicle group

With `CCOC(=O)C1=C(C)NC(=O)NC1c1ccc(OC(=O)/C=C/c2ccccc2)cc1` (stereo not shown) [Compound 1, 6-Methyl-2-oxo-4-[4-(3-phenyl-acryloyloxy)-phenyl]-1,2,3,4-tetrahydro-pyrimidine-5-carboxylic acid ethyl ester] the decrease in triglycerides [1] was 31%, the “decrease in fasting blood glucose” value [2] was 26% and the “reduction in blood glucose at the peak oral glucose tolerance test of 30 minutes” value (“reduction in blood glucose … of 30 minutes” for short) [3] was 23%. For the same compound, the “decrease of TNF-α” value [4] was 59%, the “decrease in percent change in body weight” value ([5]; FIG. 1B, compared with the control high fat diet group) was 15% and the “decrease in diastolic blood pressure” value [6] was 8%. The “decrease in systolic blood pressure” value [6] was 4%.
With `CCOC(=O)C1=C(C)NC(=O)NC1c1ccc(OC(=O)/C=C/c2ccccc2)c(OC)c1` (stereo not shown) [Compound 2, 4-[3-Methoxy-4-(3-phenyl-acryloyloxy)-phenyl]-6-Methyl-2-oxo-1,2,3,4-tetrahydro-pyrimidine-5-carboxylic acid ethyl ester] the “reduction in blood glucose … of 30 minutes” value [3] was 8%, the “decrease in body weight” value ([5]; FIG. 6A, C57BL/6 mice) was 5% and the “decrease in body weight” value ([5]; FIG. 6B, significant (P<0.0001)) was 15%.
For `CCOC(=O)C1=C(C)NC(=O)NC1c1ccc(OC(=O)C(C)C)c(OC)c1` (stereo not shown) [Compound 3, 4-(4-Isobutyryloxy-3-methoxy-phenyl)-6-methyl-2-oxo-1,2,3,4-tetrahydro-pyrimidine-5-carboxylic acid ethyl ester], the “reduction in blood glucose … of 30 minutes” value [3] was 6%.
For `CCOC(=O)C1=C(C)NC(=S)NC1c1ccc(OC(=O)C(C)C)c(OC)c1` (stereo not shown) [Compound 4, 4-(4-Isobutyryloxy-3-methoxy-phenyl)-6-methyl-2-thioxo-1,2,3,4-tetrahydro-pyrimidine-5-carboxylic acid ethyl ester], the “reduction in blood glucose … of 30 minutes” value [3] was 33% and the “reduction in blood glucose at 120 minutes after glucose administration” value ([3]; 120 minutes after glucose administration) was 26%.
